According to US7348425B2, “Inhibitors of HCV replication” (Bristol-Myers Squibb Company, priority 2004, dated 2008):
pEC50, pIC50: −log10 of the molar value.

Key:
HCV = conditions: cited from earlier work
[1] = target: T1, HCV NS5B RdRp genotype 1b (Hepatitis C virus genotype 1b, UniProt Q9WMX2); assay: Standard HCV NS5B RdRp enzyme assay; type: biochemical; conditions: standard method
T1 construct: The protein was expressed with an 18 amino acid C-terminal truncation to enhance the solubility; made in house; host or cells: E. coli BL21 (DE3), pET21a
T1 sequence (Q9WMX2 2420-2992): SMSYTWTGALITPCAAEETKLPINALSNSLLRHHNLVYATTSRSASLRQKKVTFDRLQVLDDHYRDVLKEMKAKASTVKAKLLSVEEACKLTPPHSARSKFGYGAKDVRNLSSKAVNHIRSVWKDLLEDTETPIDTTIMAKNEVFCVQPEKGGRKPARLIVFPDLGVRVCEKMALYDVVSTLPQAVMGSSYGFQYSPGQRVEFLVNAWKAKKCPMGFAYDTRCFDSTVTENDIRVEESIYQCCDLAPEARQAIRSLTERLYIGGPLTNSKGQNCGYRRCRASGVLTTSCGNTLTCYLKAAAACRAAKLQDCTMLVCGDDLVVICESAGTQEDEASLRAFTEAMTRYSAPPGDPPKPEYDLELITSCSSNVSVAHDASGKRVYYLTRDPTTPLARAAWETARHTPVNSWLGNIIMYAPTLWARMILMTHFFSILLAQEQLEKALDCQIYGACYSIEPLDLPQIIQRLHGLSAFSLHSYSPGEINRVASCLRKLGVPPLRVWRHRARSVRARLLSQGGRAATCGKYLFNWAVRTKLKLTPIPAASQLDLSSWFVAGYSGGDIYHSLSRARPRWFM
Experimental: HCVNS5B RdRp cloning, expression, and purification. The cDNA encoding the NS5B protein of HCV, genotype 1b, was cloned into the pET21a expression vector. The protein was expressed with an 18 amino acid C-terminal truncation to enhance the solubility. The E. coli competent cell line BL21 (DE3) was used for expression of the protein. Cultures were grown at 37° C. for ˜4 hours until the cultures reached an optical density of 2.0 at 600 nm. The cultures were cooled to 20° C. and induced with 1 mM IPTG. Fresh ampicillin was added to a final concentration of 50 μg/ml and the cells were grown overnight at 20° C.
Cell pellets (3 L) were lysed for purification to yield 15-24 mgs of purified NS5B. The lysis buffer consisted of 20 mM Tris-HCl, pH 7.4, 500 mM NaCl, 0.5% triton X-100, 1 mM DTT, 1 mM EDTA, 20% glycerol, 0.5 mg/ml lysozyme, 10 mM MgCl2, 15 ug/ml deoxyribonuclease I, and Complete TM protease inhibitor tablets (Roche). After addition of the lysis buffer, frozen cell pellets were resuspended using a tissue homogenizer. To reduce the viscosity of the sample, aliquots of the lysate were sonicated on ice using a microtip attached to a Branson sonicator. The sonicated lysate was centrifuged at 100,000×g for 1 hr at 4° C. and filtered through a 0.2 μm filter unit (Corning).
The protein was purified using three sequential chromatography steps: Heparin sepharose CL-6B, polyU sepharose 4B, and Hitrap SP sepharose (Pharmacia). The chromatography buffers were identical to the lysis buffer but contained no lysozyme, deoxyribonuclease I, MgCl2 or protease inhibitor and the NaCl concentration of the buffer was adjusted according to the requirements for charging the protein onto the column. Each column was eluted with a NaCl gradient which varied in length from 5-50 column volumes depending on the column type. After the final chromatography step, the resulting purity of the enzyme is >90% based on SDS-PAGE analysis. The enzyme was aliquoted and stored at −80° C.
Standard HCV NS5B RdRp enzyme assay. HCV RdRp genotype Ib assays were run in a final volume of 60 μl in 96 well plates (Costar 3912). The assay buffer is composed of 20 mM Hepes, pH 7.5, 2.5 mM KCl, 2.5 mM MgCl2, 1 mM DTT, 1.6 U RNAse inhibitor (Promega N2515), 0.1 mg/ml BSA (Promega R3961), and 2% glycerol. All compounds were serially diluted (3-fold) in DMSO and diluted further in water such that the final concentration of DMSO in the assay was 2%. HCV RdRp genotype 1b enzyme was used at a final concentration of 28 nM. A polyA template was used at 6 nM, and a biotinylated oligo-dT12 primer was used at 180 nM final concentration. Template was obtained commercially (Amersham 27-4110). Biotinylated primer was prepared by Sigma Genosys. ^3H-UTP was used at 0.6 μCi (0.29 μM total UTP). Reactions were initiated by the addition of enzyme, incubated at 30° C. for 60 min, and stopped by adding 25 μl of 50 mM EDTA containing SPA beads (4 μg/μl, Amersham RPNQ 0007). Plates were read on a Packard Top Count NXT after >1 hr incubation at room temperature.
The IC50 values for compounds were determined using seven different [I]. IC50 values were calculated from the inhibition using the formula y=A+((B−A)/(1+((C/x)^D))). FRET Assay Preparation. To perform the HCV FRET screening assay, 96-well cell culture plates were used. The FRET peptide (Anaspec, Inc.) (Taliani et al., Anal. Biochem. 240:60-67 (1996), hereby incorporated by reference in its entirety) contains a fluorescence donor, EDANS, near one end of the peptide and an acceptor, DABCYL, near the other end. The fluorescence of the peptide is quenched by […] resonance energy transfer (RET) between the donor and the acceptor, but as the NS3 protease cleaves the peptide the products are released from RET quenching and the fluorescence of the donor becomes apparent. […]

HCV replicon = HCV replicon luciferase assay; type: cell-based, Hepatitis C virus; conditions: Hepatitis C virus, luciferase method; read-out: EC50
How it was run: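 Replicon cells, some carrying a Renilla luciferase reporter, were incubated with titrated compound at 37 °C; Alamar blue measured cytotoxicity, followed by a kinetic FRET peptide read (340/490 nm) or Dual-Glo luciferase. Activity was normalized to untreated controls after subtracting background from high-dose protease inhibitor wells; EC50 was the concentration giving 50% signal reduction.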

Compound	clinical results as monotherapy (HCV; compared with unmodified alpha-interferon)	pIC50 [1]	pEC50 (HCV replicon)	sustained efficacy, share of patients (HCV; HCV patients, combination therapy) [%]
pegylated alpha-interferon	superior to unmodified alpha-interferon	–	–	–
O=C(O)c1ccc2c(C3CCCCC3)c3n(c2c1)CC(C(=O)N1CCN(c2ccncc2)CC1)Cc1ccccc1-3 (centres unmarked)	–	6.00 to 7.00	6.00 to 7.00	–
O=C(O)c1ccc2c(C3CCCCC3)c3n(c2c1)CCCc1cc(O)ccc1-3	–	6.00 to 7.00	6.00 to 7.00	–
O=C(O)c1ccc2c(C3CCCCC3)c3n(c2c1)CC(C(=O)N1CCN(c2ccncc2)CC1)=Cc1ccccc1-3	–	6.00 to 7.00	6.00 to 7.00	–
CN1C(=O)Cn2c(c(C3CCCCC3)c3ccc(C(=O)O)cc32)-c2ccccc21 [Example 22, 13-cyclohexyl-6,7-dihydro-6-oxo-5-methyl-5H-indolo[1,2-d][1,4]benzodiazepine-10-carboxylic acid]	–	6.00 to 7.00	6.00 to 7.00	–
O=C(O)c1ccc2c(C3CCCCC3)c3n(c2c1)CC=Cc1ncccc1-3	–	< 6.00	5.00 to 6.00	–
CCOC(=O)c1cc2ccccc2c2c(C3CCCCC3)c3ccc(C(=O)OC)cc3n12 [Example 16, 6-ethyl-9-methyl-12-cyclohexyl-indolo[2,1-a]isoquinoline-6,9-dicarboxylic acid]	–	< 6.00	< 5.00	–
COC1c2ccccc2-c2c(C3CCCCC3)c3ccc(C(=O)O)cc3n21 (centres unmarked)	–	< 6.00	< 5.00	–
alpha-interferon and ribavirin [reference compound]	–	–	–	40
O=C(O)/C=C/c1ccc(NC(=O)C2(NC(=O)c3ccc4c(C5CCCCC5)c5n(c4c3)CC(=O)Nc3cccnc3-5)CCCC2)cc1	–	6.00 to 7.00	> 7.00	–
COC(=O)c1ccc2c(C3CCCCC3)c3n(c2c1)CC(C(=O)N1CCN(c2ccncc2)CC1)=Cc1ccccc1-3	–	< 6.00	5.00 to 6.00	–
